In brackets after ≈: the same amount, converted by molar mass. Where a name gives a salt, the structure may show the parent alone.
Legend:
[1] = physchem; conditions: organic solvent or mixture
[2] = 20° C.; cited from earlier work

| Compound | solubility ([1]; 20 °C) [mg/mL] | other results |
| --- | --- | --- |
| O=C(CCCN1CCC(O)(c2ccc(Cl)cc2)CC1)c1ccc(F)cc1 [Haloperidol] | 110 (≈ 293 mM) |  |
| O=C1CCc2ccc(OCCCCN3CCN(c4cccc(Cl)c4Cl)CC3)cc2N1 [Aripiprazole] | 400 (≈ 892 mM) |  |
| Cc1nc2n(c(=O)c1CCN1CCC(c3noc4cc(F)ccc34)CC1)CCCC2O (stereo not shown) [Paliperidone] |  | solubility ([1]; 60 °C): 233 mg/mL (≈ 546 mM) |
| COc1cc(C(C)=O)ccc1OCCCN1CCC(c2noc3cc(F)ccc23)CC1 [Iloperidone] | 200 (≈ 469 mM) |  |
| CC12CC3CC(C)(C1)CC(N)(C3)C2 [Memantine hydrochloride] | 130 |  |
| O=C1CC[C@@]2(O)[C@H]3Cc4ccc(O)c5c4[C@@]2(CCN3CC2CC2)[C@H]1O5 [Naltrexone hydrochloride] |  | solubility ([1]; benzyl alcohol, 20 °C): 800 mg/mL |
| glycofurol |  | solubility in water [2]: soluble |
| CNCC[C@H](Oc1cccc2ccccc12)c1cccs1 [Duloxetine hydrochloride] | 400 |  |
| CCN(C)C(=O)Oc1cccc([C@H](C)N(C)C)c1 [Rivastigmine tartrate] | 200 |  |
| Cc1nc2n(c(=O)c1CCN1CCC(c3noc4cc(F)ccc34)CC1)CCCC2 [Risperidone] | 500 (≈ 1220 mM) |  |
